Reference: the supplement of paper PMC10307832

Experiments:
Test in all cases: relative viability (nuclei count vs DMSO), 5 days (fraction); higher = more cells survive
[1] = compound: CC1=CC(=CC=C1)NC2=NC(=CS2)C3=CC=NC=C3 + CCNC(=O)c1noc(-c2cc(C(C)C)c(O)cc2O)c1-c1ccc(CN2CCOCC2)cc1 [Luminespib] (partner 0.01 µM)
How it was run: (§1)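 Lung cancer cell lines were pin-tool dosed in 1536-well plates on the day after seeding, with either a lone drug or a fixed anchor-drug dose plus five library-drug doses (not always all listed) in √10 steps. Nuclei were counted on 4× images after 5 days. Relative viability is the ratio of treated-well to vehicle-well nuclei counts, with each value a median of duplicate plates.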

[2] = compound: CC1=CC(=CC=C1)NC2=NC(=CS2)C3=CC=NC=C3 + N=C(N)NC(=N)NCCc1ccccc1 [Phenformin] (partner 250 µM)
How it was run: as §1

[3] = compound: CC1=CC(=CC=C1)NC2=NC(=CS2)C3=CC=NC=C3 + Nc1ncn([C@H]2C[C@H](O)[C@@H](CO)O2)c(=O)n1 [Decitabine] (partner 2 µM)
How it was run: as §1

Masitinib + Linsitinib = compound: Cc1ccc(NC(=O)c2ccc(CN3CCN(C)CC3)cc2)cc1Nc1nc(-c2cccnc2)cs1 [Masitinib] + C[C@]1(O)C[C@@H](c2nc(-c3ccc4ccc(-c5ccccc5)nc4c3)c3c(N)nccn32)C1 [Linsitinib] (partner 1 µM)
How it was run: as §1

Cell Line | relative viability ([1]; first compound 0.08 µM) | relative viability ([1]; first compound 0.253 µM) | relative viability ([1]; first compound 0.8 µM) | relative viability ([1]; first compound 2.53 µM) | relative viability ([1]; first compound 8 µM) | relative viability ([2]; first compound 0.08 µM) | relative viability ([2]; first compound 0.253 µM) | relative viability ([2]; first compound 0.8 µM) | relative viability ([2]; first compound 2.53 µM) | relative viability ([2]; first compound 8 µM) | relative viability ([3]; first compound 0.08 µM) | relative viability ([3]; first compound 0.253 µM) | relative viability ([3]; first compound 0.8 µM) | relative viability ([3]; first compound 2.53 µM) | relative viability ([3]; first compound 8 µM) | relative viability (Masitinib + Linsitinib; first compound 0.01 µM) | relative viability (Masitinib + Linsitinib; first compound 0.03162 µM) | relative viability (Masitinib + Linsitinib; first compound 0.1 µM) | relative viability (Masitinib + Linsitinib; first compound 0.3162 µM) | relative viability (Masitinib + Linsitinib; first compound 1 µM)
NCI-H2342 | 0.746 | 0.717 | 0.771 | 0.67 | 0.676 | 0.483 | 0.582 | 0.603 | 0.518 | 0.568 | 0.691 | 0.773 | 0.657 | 0.77 | 0.761 | – | – | – | – | –
NCI-H1793 | 0.182 | 0.177 | 0.177 | 0.202 | 0.344 | 0.255 | 0.293 | 0.387 | 0.408 | 0.316 | 0.513 | 0.481 | 0.489 | 0.472 | 0.238 | 0.875 | 0.839 | 0.812 | 0.998 | 0.647
LU99A | 0.256 | 0.213 | 0.242 | 0.302 | 0.254 | 0.762 | 0.765 | 0.863 | 0.884 | 0.821 | 0.889 | 0.939 | 0.787 | 0.709 | 0.879 | 0.511 | 0.53 | 0.512 | 0.719 | 0.505
HCC-366 | – | – | – | – | – | 0.635 | 0.601 | 0.576 | 0.607 | 0.505 | 0.329 | 0.357 | 0.308 | 0.309 | 0.263 | 0.728 | 0.521 | 0.841 | 0.753 | 0.55
201T | 1.08 | 0.993 | 1 | 0.95 | 0.849 | 0.389 | 0.38 | 0.44 | 0.375 | 0.433 | 0.898 | 0.904 | 0.909 | 0.937 | 0.827 | 0.881 | 0.977 | 1.01 | 0.851 | 1.01
HCC-827 | 0.618 | 0.453 | 0.649 | 0.89 | 0.726 | 0.416 | 0.383 | 0.447 | 0.445 | 0.38 | 0.298 | 0.317 | 0.352 | 0.287 | 0.328 | 1.03 | 0.969 | 0.976 | 0.935 | 0.935
NCI-H650 | 0.866 | 0.803 | 0.929 | 0.687 | 0.893 | 0.426 | 0.407 | 0.476 | 0.372 | 0.502 | 0.331 | 0.3 | 0.336 | 0.386 | 0.334 | 0.796 | 0.752 | 0.896 | 0.981 | 0.806
NCI-H2085 | 0.381 | 0.428 | 0.444 | 0.383 | 0.393 | 0.709 | 0.67 | 0.723 | 0.676 | 0.684 | 0.479 | 0.532 | 0.504 | 0.452 | 0.457 | 0.787 | 0.914 | 0.955 | 1.01 | 0.726
NCI-H596 | 0.938 | 0.959 | 0.809 | 0.911 | 0.814 | 0.727 | 0.789 | 0.733 | 0.68 | 0.669 | 0.923 | 1.02 | 0.836 | 0.899 | 0.91 | 1.21 | 0.98 | 1.05 | 1.14 | 1.05
